US11976057B2, “MrgX2 antagonists” (GlaxoSmithKline Intellectual Property Development Limited, priority 2020, dated 2024)
pIC50: −log10 of the molar value.

Molecular target: T1, human MRGPRX2 (Homo sapiens, UniProt Q96LB1)
T1 sequence (Q96LB1 1-330): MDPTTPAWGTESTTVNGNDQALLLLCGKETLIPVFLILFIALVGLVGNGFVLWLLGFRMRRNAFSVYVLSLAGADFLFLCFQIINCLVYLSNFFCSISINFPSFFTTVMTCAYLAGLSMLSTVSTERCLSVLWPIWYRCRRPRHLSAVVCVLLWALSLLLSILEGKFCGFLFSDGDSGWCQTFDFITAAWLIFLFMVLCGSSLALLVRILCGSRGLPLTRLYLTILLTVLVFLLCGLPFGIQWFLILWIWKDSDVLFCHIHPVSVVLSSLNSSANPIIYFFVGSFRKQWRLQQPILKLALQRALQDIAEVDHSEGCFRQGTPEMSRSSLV
Assay: Ca2+ mobilization assay (FLIPR TETRA): inhibition of Cortistatin-14 mediated MRGPRX2 activation

In the case of `C[C@@H](C(=O)Nc1ccc(Oc2ccc(F)cc2F)cn1)N1CCC(F)(F)C(c2ccnc(C(N)=O)c2)C1` (mixture of isomers) [Example 261, 4-(1-((S)-1-((5-(2,4-difluorophenoxy)pyridin-2-yl)amino)-1-oxopropan-2-yl)-4,4-difluoropiperidin-3-yl)picolinamide], the pIC50 was at least 8.00.

`CC(C(=O)Nc1cc(F)c(F)cn1)N1CCC(F)(F)[C@@H](c2ccc(=O)[nH]c2)C1` (stereo partly drawn) [Example 39, 2-((S)-4,4-difluoro-3-(6-oxo-1,6-dihydropyridin-3-yl)piperidin-1-yl)-N-(4,5-difluoropyridin-2-yl)propanamide] showed a pIC50 of 5.50 to 7.00.

In the case of `CC(C(=O)Nc1ccc(Oc2ncc(F)cc2Cl)cn1)N1CCC(F)(F)[C@@H](c2ccc(=O)[nH]c2)C1` (stereo partly drawn) [Example 90, N-(5-((3-chloro-5-fluoropyridin-2-yl)oxy)pyridin-2-yl)-2-((S)-4,4-difluoro-3-(6-oxo-1,6-dihydropyridin-3-yl)piperidin-1-yl)propanamide], the pIC50 was at least 8.00.

With `CC(C(=O)Nc1ccc(F)cn1)N1CCC(F)(F)C(c2ccc(=O)n(Cc3ncco3)c2)C1` (centres unmarked) [Example 198, 2-(4,4-difluoro-3-(1-(oxazol-2-ylmethyl)-6-oxo-1,6-dihydropyridin-3-yl)piperidin-1-yl)-N-(5-fluoropyridin-2-yl)propanamide] the pIC50 was 7.00 to 8.00.

Work on `C[C@@H](C(=O)Nc1ccc(OCc2ncco2)cn1)N1CCC(F)(F)[C@@H](c2ccc(=O)[nH]c2)C1` [Example 38, (S)-2-((S)-4,4-difluoro-3-(6-oxo-1,6-dihydropyridin-3-yl)piperidin-1-yl)-N-(5-(oxazol-2-ylmethoxy)pyridin-2-yl)propanamide] yielded a pIC50 of 5.50 to 7.00.

`C[C@@H](C(=O)Nc1ccc(F)cn1)N1CCC(F)(F)[C@@H](c2ccc(=O)[nH]c2)C1` [Example 79, (S)-2-((S)-4,4-difluoro-3-(6-oxo-1,6-dihydropyridin-3-yl)piperidin-1-yl)-N-(5-fluoropyridin-2-yl)propanamide] was tested, and the pIC50 was 7.00 to 8.00.

`CC(C(=O)Nc1ccc(Oc2ccc(F)cc2)nn1)N1CCC(F)(F)[C@@H](c2ccc(=O)[nH]c2)C1` (stereo partly drawn) [Example 63, 2-((S)-4,4-difluoro-3-(6-oxo-1,6-dihydropyridin-3-yl)piperidin-1-yl)-N-(6-(4-fluorophenoxy)pyridazin-3-yl)propanamide] was tested, and the pIC50 was 5.50 to 7.00.

`C[C@@H](C(=O)Nc1ccc(Oc2c(F)cc(F)cc2F)cn1)N1CCC(F)(F)[C@@H](c2cc[n+]([O-])cc2)C1` [Example 123, 4-((S)-4,4-difluoro-1-((S)-1-oxo-1-((5-(2,4,6-trifluorophenoxy)pyridin-2-yl)amino)propan-2-yl)piperidin-3-yl)pyridine 1-oxide] gave a pIC50 of at least 8.00.

Work on `C[C@@H](C(=O)Nc1ccc(Oc2ccc(F)cc2F)cn1)N1CCC(F)(F)C(c2cncc(C(O)C(F)(F)F)c2)C1` (mixture of isomers) [Example 265, (2S)-2-(4,4-difluoro-3-(5-(2,2,2-trifluoro-1-hydroxyethyl)pyridin-3-yl)piperidin-1-yl)-N-(5-(2,4-difluorophenoxy)pyridin-2-yl)propanamide] yielded a pIC50 of at least 8.00.

For `C[C@@H](C(=O)Nc1ccc(OCC2CC2)cn1)N1CCC(F)(F)[C@@H](c2c[nH]c(=O)c(N)c2)C1` [Example 138, (S)-2-((S)-3-(5-amino-6-oxo-1,6-dihydropyridin-3-yl)-4,4-difluoropiperidin-1-yl)-N-(5-(cyclopropylmethoxy)pyridin-2-yl)propanamide], the pIC50 was 7.00 to 8.00.

Work on `CC(C(=O)Nc1ccc(Oc2ccc(F)cc2)cn1)N1CCC(F)(F)C(c2cc[n+]([O-])c(C(O)C(F)(F)F)c2)C1` (centres unmarked) [Example 257] yielded a pIC50 of 7.00 to 8.00.

Compound `C[C@@H](C(=O)Nc1ccc(Cl)cn1)N1CCC[C@@H](c2c[nH]c(=O)c(N)n2)C1` (single isomer, unassigned) [Example 174] has a pIC50 of 5.50 to 7.00.

In the case of `CC(C(=O)Nc1ccc(Oc2ccc(C#N)cc2)cn1)N1CCC(F)(F)C(c2ccc(=O)[nH]c2)C1` (centres unmarked) [Example 58, N-(5-(4-cyanophenoxy)pyridin-2-yl)-2-(4,4-difluoro-3-(6-oxo-1,6-dihydropyridin-3-yl)piperidin-1-yl)propanamide], the pIC50 was 5.50 to 7.00.

For `C[C@@H](C(=O)Nc1ccc(Oc2ccc(F)cc2F)cn1)[C@H]1CCC[C@@H](c2ccc(=O)[nH]c2)C1` [Example 282, (R)—N-(5-(2,4-difluorophenoxy)pyridin-2-yl)-2-((1S,3R)-3-(6-oxo-1,6-dihydropyridin-3-yl)cyclohexyl)propanamide], the pIC50 was at least 8.00.

With `C[C@@H](C(=O)Nc1ccc(F)cn1)[C@H]1CCC(F)(F)[C@@H](c2ccc(=O)[nH]c2)C1` [Example 277, (R)-2-((1S,3R)-4,4-difluoro-3-(6-oxo-1,6-dihydropyridin-3-yl)cyclohexyl)-N-(5-fluoropyridin-2-yl)propanamide] the pIC50 was 7.00 to 8.00.

`C[C@@H](C(=O)Nc1ccc(Oc2cc(F)c(F)cc2F)cn1)N1CCC(F)(F)[C@@H](c2cc[n+]([O-])cc2)C1` [Example 124, 4-((S)-4,4-difluoro-1-((S)-1-oxo-1-((5-(2,4,5-trifluorophenoxy)pyridin-2-yl)amino)propan-2-yl)piperidin-3-yl)pyridine 1-oxide] was tested, and the pIC50 was at least 8.00.

`C[C@@H](C(=O)Nc1ccc(/C=C\C2CC2)cn1)N1CCC(F)(F)[C@@H](c2ccc(=O)[nH]c2)C1` [Example 80, (S)-N-(5-((Z)-2-cyclopropylvinyl)pyridin-2-yl)-2-((S)-4,4-difluoro-3-(6-oxo-1,6-dihydropyridin-3-yl)piperidin-1-yl)propanamide] was tested, and the pIC50 was 7.00 to 8.00.

Compound `C[C@@H](C(=O)Nc1ccc(Cl)cn1)N1CCC[C@@H](c2c[nH]c(=O)c(-c3ccccc3)c2)C1` (single isomer, unassigned) [Example 178] has a pIC50 of 5.50 to 7.00.

`C[C@@H](C(=O)Nc1ccc(Oc2ncc(F)cc2F)cn1)N1CCC(F)(F)[C@@H](c2ccc(=O)[nH]c2)C1` [Example 66, (S)-2-((S)-4,4-difluoro-3-(6-oxo-1,6-dihydropyridin-3-yl)piperidin-1-yl)-N-(5-((3,5-difluoropyridin-2-yl)oxy)pyridin-2-yl)propanamide] showed a pIC50 of at least 8.00.

For `C[C@@H](C(=O)Nc1ccc(OC2CCC2)nn1)N1CCC(F)(F)[C@@H](c2ccc(=O)[nH]c2)C1` [Example 100, (S)-N-(6-cyclobutoxy-pyridazin-3-yl)-2-((S)-4,4-difluoro-3-(6-oxo-1,6-dihydropyridin-3-yl)piperidin-1-yl)propanamide], the pIC50 was 5.50 to 7.00.

In the case of `CC(C(=O)Nc1ccc(OCC2CCC2)cn1)N1CCC(F)(F)[C@@H](c2ccc(=O)[nH]c2)C1` (stereo partly drawn) [Example 30, N-(5-(cyclobutyl-methoxy)pyridin-2-yl)-2-((S)-4,4-difluoro-3-(6-oxo-1,6-dihydropyridin-3-yl)piperidin-1-yl)propanamide], the pIC50 was 5.50 to 7.00.

In the case of `C[C@@H](C(=O)Nc1cnc(Oc2c(F)cc(F)cc2F)cn1)N1CCC(F)(F)[C@@H](c2cc[n+]([O-])cc2)C1` [Example 119, 4-((S)-4,4-difluoro-1-((S)-1-oxo-1-((5-(2,4,6-trifluorophenoxy)pyrazin-2-yl)amino)propan-2-yl)piperidin-3-yl)pyridine 1-oxide], the pIC50 was at least 8.00.

For `C[C@@H](C(=O)Nc1ccc(OCC(C)(C)C)nn1)N1CCC(F)(F)[C@@H](c2ccc(=O)[nH]c2)C1` [Example 89, (S)-2-((S)-4,4-difluoro-3-(6-oxo-1,6-dihydropyridin-3-yl)piperidin-1-yl)-N-(6-(neopenlyloxy)pyridazin-3-yl)propanamide], the pIC50 was 5.50 to 7.00.
